Structures are written as SMILES. ≈ marks a conversion by molar mass, not a printed value. Structures can show the parent of a compound that is named as a salt. Where two headings read alike, the source gives them in different places.

We go through ten compounds from patent US20240018121A1, “NOVEL HETEROAROMATIC COMPOUNDS EXHIBITING ANTIFUNGAL ACTIVITY AND THEIR METHOD OF USE” (FOX CHASE CHEMCIAL DIVERSITY CENTER, INC., priority 2020, published 2024).

Holding throughout (type): cell-based
In test [1] the test system is Fusarium falciforme FS1 (ATCC MYA-3636). Put plainly: Fungal MIC Protocol, Fusarium falciforme. The following applies: Fusarium falciforme, read-out: MIC Fusarium falciforme 3636. How it is done: (§1) Fungal MIC Protocol: RPMI/MOPS media (Roswell Park Memorial Institute/3-morpholinopropane-1-sulfonic acid media) is prepared by dissolving 8.4 grams RPMI […] (Sigma cat #R1383), 34.52 grams MOPS buffer (Sigma cat #M3.183) and 2 […] glucose in 900 mL deionized water. The pH is adjusted to 7.0 with NaOH and filter sterilized. 0.1 mL, of a stock spore suspension (or loop from frozen stock) is inoculated to a 75 mL tissue culture flask (Falcon cat #353136) containing 50 mL of Potato Dextrose Agar (PDA, 24 grams PD broth (Fisher cat #DF 0549179), 20 grams agar (Fisher cat #BP 1423500) per liter water). Aspergillus and Fusarium strains are grown at 35° C. and Mucor strains are grown at room temperature for 3-5 days. Spores are harvested by flooding the flask with 5 mL phosphate buffered saline (PBS) pH 7.4+0.1% Tween-20 and several glass beads (Fisher cat #S800243) are added to aid in agitation. The supernatant is removed and the OD530 of a 1:100 dilution is measured. Spores are diluted in RPMI/MOPS to a final OD530 of 0.002 for Aspergillus and an OD530 of 0.005 for Fusarium and Mucor. The final concentration of spores is approximately 2×10^4 cfu/mL. Test compound(s) are diluted to 200 ug/mL in RPMI/MOPS ([…]). Ten (10) serial dilutions are prepared with RPMI/MOPS in a 96-well round bottom plate (Fisher cat #353136). For Mucor strains a sterile flat-bottom 96-well plate is used. 50 μl of compound dilutions in duplicate are added to a sterile 96-well round bottom plate. 50 ul of diluted spores are added to the compound-containing plates. Control wells include 1) compound but no cells and 2) spores but no compound. Mix the plates gently by hand, place in ziplock bags and
(§2) incubate at 35° C. for 48 hours. […]

Another test concerns Candida albicans GDH2346. Put plainly: Candida Minimal Inhibitory Concentration (MIC). The following applies: for MIC50: Candida albicans, read-out: MIC-50 Candida albicans GDH2346. As to the method: Candida Minimal Inhibitory Concentration (MIC): RPMI/MOPS media is prepared by dissolving 8.4 g RPMI 1640, 34.52 g MOPS buffer and 2 g glucose in 900 mL water. The pH is adjusted to 7.0 with NaOH. The total volume is brought to 1 L and the resulting solution is filter sterilized. The Candida stock is streaked on a Yeast extract Peptone Dextrose (YPD) agar plate and grown at 35° C. for isolation of single colonies. Compounds of the disclosure are diluted to 200 μg/mL in RPMI/MOPS (4.8 ul of 10 mg/mL DMSO stock in 240 ul media). Ten (10) 1:2 serial dilutions are prepared in RPMI/MOPS in a 96-well round bottom plate. Fifty (50) μl of compound dilutions are transferred in duplicate to a sterile tissue culture-treated 96-well flat-bottom, black-sided polypropylene plate. A single colony of Candida from the YPD plate is re-suspended in 5 mL phosphate buffered saline (BS) and optical density (OD) at 600 nm is measured. The suspension is adjusted to OD=1.0 and a 1:1000 dilution is prepared in RPMI/MOPS. Fifty (50) ul aliquots of the diluted yeast are added to the plates containing 50 μL of compound to all wells except 12E-H. Control wells include: 12 A-D cells, no compound and 12 E-H no cells, no compound. The plates are mixed gently by hand and placed in Ziplok bags in a 35° C. incubator. The OD600 is measured at 24 and 48 hours.

The subject of test [2] is Aspergillus flavus AFL1 (ATCC MYA-3631). Put plainly: Fungal MIC Protocol, Aspergillus flavus. The following applies: for MIC: Aspergillus flavus, read-out: MIC Aspergillus flavus 3631. As to the method: as §1, §2
The test system of test [3] is Fusarium solani (ATCC 58877). Put plainly: Fungal MIC Protocol, Fusarium solani. The following applies: Fusarium solani, read-out: MIC Fusarium solani 58877. How it is done: as §1, §2
In test [4] the test system is Mucor circinelloides 1463(62) (ATCC 26759). Put plainly: Fungal MIC Protocol, Mucor circinelloides (MIC-50). The following applies: Mucor circinelloides, read-out: MIC-50 Mucorales circinelloides 26579. How it is done: as §1
(§3) incubate at 35° C. for 48 hours. Score the MIC visually (lowest concentration of compound showing >50% growth inhibition) using an inverted mirror.

Test [5] deals with Aspergillus fumigatus T33439 (ATCC MYA-3626). Put plainly: Fungal MIC Protocol, Aspergillus fumigatus. The following applies: for MIC: Aspergillus fumigatus, read-out: MIC Aspergillus fumigatus 3626. As to the method: as §1, §2
The subject of test [6] is Mucor ramosissimus 057718 (ATCC 90286). Put plainly: Fungal MIC Protocol, Mucor ramosissimus (MIC-50). The following applies: Mucor ramosissimus, read-out: MIC-50 Mucorales ramosissimus 90286. As to the method:
as §1, §3

Setting [7] is: 100% growth inhibition at 48 hours.
[8] abbreviates: GDH2346, 50% growth inhibition at 48 hours.
[9] abbreviates: ATCC58877, 100% growth inhibition at 48 hours.
[10] abbreviates: ATCC26759, 50% growth inhibition at 48 hours.
[11] abbreviates: ATCC90286, 50% growth inhibition at 48 hours.

By MIC is commonly meant the lowest concentration that inhibits growth of the organism. For `N=C(N)N1CC=C(c2ccc(-c3nnc(-c4ccc(C5=CCN(C(=N)N)CC5)cc4F)n3CCO)c(F)c2)CC1` [Example 57, 4,4′-(4,4′-(4-(2-Hydroxyethyl)-4H-1,2,4-triazole-3,5-diyl)bis(3-fluoro-4,1-phenylene))bis(5,6-dihydropyridine-1(2H)-carboximidamide)], the MIC in test [1] (setting [7]) is below 0.1 µg/mL; in test [2] (setting [7]) it was 0.2 µg/mL (≈ 0.365 µM); in test [3] (setting [9]), below 0.1 µg/mL; in test [5] (setting [7]) it was below 0.1 µg/mL. The results for the MIC50 (with Candida albicans GDH2346 (setting [8]); in test [4] (setting [10]); in test [6] (setting [11])) were 0.2 µg/mL (≈ 0.365 µM), 0.39 µg/mL (≈ 0.712 µM) and 3.13 µg/mL (≈ 5.72 µM), respectively.

For the compound `N=C(N)N1CC=C(c2ccc(-c3nnc(-c4ccc(C5=CCN(C(=N)N)CC5)cc4F)n3CCCO)c(F)c2)CC1` [Example 73, 4-(4-{5-[4-(1-carbamimidoyl-1,2,3,6-tetrahydropyridin-4-yl)-2-fluorophenyl]-4-(3-hydroxypropyl)-4H-1,2,4-triazol-3-yl}-3-fluorophenyl)-1,2,3,6-tetrahydropyridine-1-carboximidamide hydrochloride], the MIC in test [1] (48 h) was 0.1 µg/mL; in test [2] (48 h), 0.2 µg/mL; in test [3] (ATCC58877, 48 h) it was 0.05 µg/mL; in test [5] (48 h) it was 0.1 µg/mL. The MIC50 stood at 0.2 µg/mL with Candida albicans GDH2346 (GDH2346, 48 h); 1.56 µg/mL in test [4] (ATCC26759, 48 h); 3.13 µg/mL in test [6] (ATCC90286, 48 h).

Take `CN1CCC(n2c(-c3ccc(C4=CCN(C(=N)N)CC4)cc3F)nnc2-c2ccc(C3=CCN(C(=N)N)CC3)cc2F)CC1` [Example 15, 4,4′-(4,4′-(4-(1-Methylpiperidin-4-yl)-4H-1,2,4-triazole-3,5-diyl)bis(3-fluoro-4,1-phenylene))bis(5,6-dihydropyridine-1(2H)-carboximidamide)]: the minimal inhibitory concentration (MIC) in test [1] (setting [7]) is 0.78 µg/mL (≈ 1.3 µM); in test [2] (setting [7]) it was 3.13 µg/mL (≈ 5.21 µM); in test [3] (setting [9]), below 0.1 µg/mL; in test [5] (setting [7]), 3.13 µg/mL (≈ 5.21 µM). Also, the MIC50 is 25 µg/mL (≈ 41.6 µM) in the test with Candida albicans GDH2346 (setting [8]), above 100 µg/mL in test [4] (setting [10]) and above 100 µg/mL in test [6] (setting [11]).

Turning to `N=C(N)N1CC=C(c2ccc(-c3nnc(-c4ccc(C5=CCN(C(=N)N)CC5)cc4)n3C3CCCC3)cc2)CC1` [Example 69, 4-(4-{5-[4-(1-carbamimidoyl-1,2,3,6-tetrahydropyridin-4-yl)phenyl]-4-cyclopentyl-4H-1,2,4-triazol-3-yl}phenyl)-1,2,3,6-tetrahydropyridine-1-carboximidamide trifluoroacetate], the minimal inhibitory concentration (MIC) in test [1] (48 h) was below 0.1 µg/mL; in test [2] (48 h) it was 0.2 µg/mL; in test [3] (ATCC58877, 48 h), below 0.1 µg/mL; in test [5] (48 h) it was 0.1 µg/mL. The MIC50 with Candida albicans GDH2346 (GDH2346, 48 h) was found to be 0.39 µg/mL; in test [4] (ATCC26759, 48 h), 0.39 µg/mL; in test [6] (ATCC90286, 48 h), 0.39 µg/mL.

`Cn1c(-c2ccc(C3=CCN(C(=N)N)CC3)c(F)c2)nnc1-c1ccc(C2=CCN(C(=N)N)CC2)cc1F` [Example 79, 4-(4-{5-[4-(1-carbamimidoyl-1,2,3,6-tetrahydropyridin-4-yl)-2-fluorophenyl]-4-methyl-4H-1,2,4-triazol-3-yl}-2-fluorophenyl)-1,2,3,6-tetrahydro pyridine-1-carboximidamide trifluoroacetate]: the minimum inhibitory concentration (MIC) in test [1] (setting [7]) worked out at 0.05 µg/mL; in test [2] (setting [7]) it was 0.1 µg/mL; in test [3] (setting [9]), 0.1 µg/mL; in test [5] (setting [7]) it was 0.1 µg/mL. For the same compound, the MIC50 with Candida albicans GDH2346 (setting [8]) is 0.1 µg/mL; in test [4] (setting [10]), 0.2 µg/mL; in test [6] (setting [11]) it was 0.39 µg/mL.

Take `Cn1c(-c2ccc(C3=CCN(C(=N)N)CC3)c(F)c2)nnc1-c1ccc(C2=CCN(C(=N)N)CC2)c(F)c1` [Example 19, 4,4′-(4,4-(4-Methyl-4H-1,2,4-triazole-3,5-diyl)bis(2-fluoro-4,1-phenylene)) bis(5,6-dihydropyridine-1(2H)-carboximidamide)]: the minimal inhibitory concentration (MIC) in test [1] (setting [7]) is 0.01 µg/mL (≈ 0.0193 µM); in test [2] (setting [7]), 0.03 µg/mL (≈ 0.058 µM); in test [3] (setting [9]), 0.03 µg/mL (≈ 0.058 µM); in test [5] (setting [7]), 0.01 µg/mL (≈ 0.0193 µM). Further, the values for the MIC50 (in the test on Candida albicans GDH2346 (setting [8]); in test [4] (setting [10]); in test [6] (setting [11])) were 0.1 µg/mL (≈ 0.193 µM), 0.1 µg/mL (≈ 0.193 µM) and 0.2 µg/mL (≈ 0.386 µM), respectively.

Take `Cc1cc(-c2cn(-c3ccc(C4=CCN(C(=N)N)CC4)cc3)nn2)ccc1C1=CCN(C(=N)N)CC1` [Example 37, 4-(4-(4-(4-(1-Carbamimidoyl-1,2,3,6-tetrahydropyridin-4-yl)-3-methylphenyl)-1H-1,2,3-triazol-1-yl)phenyl)-5,6-dihydropyridine-1(2H)-carboximidamide]: the MIC in test [1] (setting [7]) came out at 0.39 µg/mL (≈ 0.81 µM); in test [2] (setting [7]), 0.2 µg/mL (≈ 0.415 µM); in test [3] (setting [9]), 0.39 µg/mL (≈ 0.81 µM); in test [5] (setting [7]), 0.39 µg/mL (≈ 0.81 µM). Besides, the figures for the MIC50 (in the test with Candida albicans GDH2346 (setting [8]); in test [4] (setting [10]); in test [6] (setting [11])) were 0.78 µg/mL (≈ 1.62 µM), 0.39 µg/mL (≈ 0.81 µM) and 6.25 µg/mL (≈ 13 µM), respectively.

For the compound `N=C(N)N1CC=C(c2ccc(-c3nnc(-c4ccc(C5=CCN(C(=N)N)CC5)cc4F)n3CCO)cc2)CC1` [Example 82, 4-(4-{5-[4-(1-carbamimidoyl-1,2,3,6-tetrahydropyridin-4-yl)-2-fluorophenyl]-4-(2-hydroxyethyl)-4H-1,2,4-triazol-3-yl}phenyl)-1,2,3,6-tetrahydropyridine-1-carboximidamide hydrochloride], the MIC in test [1] (48 h) worked out at 0.05 µg/mL; in test [2] (48 h), 0.2 µg/mL; in test [3] (ATCC58877, 48 h), 0.05 µg/mL; in test [5] (48 h) it was 0.1 µg/mL. Further, the MIC50 is 0.2 µg/mL in the test on Candida albicans GDH2346 (GDH2346, 48 h); 0.39 µg/mL in test [4] (ATCC26759, 48 h); 1.56 µg/mL in test [6] (ATCC90286, 48 h).

For `CNc1cc(C2=CCN(C(=N)N)CC2)ccc1-c1nnc(-c2ccc(C3=CCN(C(=N)N)CC3)cc2NC)o1` [Example 47b, 4,4′-(4,4′-(1,3,4-Oxadiazole-2,5-diyl)bis(3-(methylamino)-4,1-phenylene))bis(5,6-dihydropyridine-1(2H)-carboximidamide)], the “MIC-50 Candida albicans GDH2346” value in the test with Candida albicans GDH2346 (50% growth inhibition at 48 hours) amounted to 1.56 µg/mL (≈ 2.96 µM). The “MIC Aspergillus flavus 3631” value in test [2] (setting [7]) is 0.78 µg·mL. Also, in test [5] (setting [7]), the “MIC Aspergillus fumigatus 3626” value stood at 0.78 µg·mL.

Consider `N=C(N)N1CCN(c2ccc(-c3nnc(-c4ccc(N5CCN(C(=N)N)CC5)cc4)o3)cc2)CC1` [Example 51, 4,4′-(4,4′-(1,3,4-Oxadiazole-2,5-diyl)bis(4,1-phenylene)) dipiperazine-1-carboximidamide], for which the MIC50 in the test on Candida albicans GDH2346 (setting [8]) is 3.13 µg/mL (≈ 6.6 µM). Further, the minimum inhibitory concentration (MIC) worked out at 6.25 µg/mL (≈ 13.2 µM) in test [2] (setting [7]) and 0.78 µg/mL (≈ 1.64 µM) in test [5] (setting [7]).
